53 compounds from ChEMBL document CHEMBL5376006, “Discovery of a Hidden Pocket beneath the NES Groove by Novel Noncovalent CRM1 Inhibitors” (J Med Chem, 2023) can be followed below.

Experiment [1] has as its target T1, Exportin-1 (Homo sapiens, UniProt O14980). Briefly: Inhibition of CRM1 (unknown origin) binding to GST-tagged NES PKI assessed as CRM1/NES band ratio at 20 uM incubated for 1.5 hrs by Coomassie brilliant blue staining based pull-down assay.
Another experiment has as its system HeLa. Briefly: Antiproliferative activity against human HeLa cells assessed as inhibition of cell growth at 20 uM incubated for 72 hrs by SRB assay. The format is functional, cell-based. In general terms: The SRB assay estimates cell density from bound dye.
The target of experiment [2] is T1, Exportin-1. Briefly: Inhibition of CRM1 (unknown origin) binding to GST-tagged NES PKI at 100 uM incubated for 1.5 hrs by Coomassie brilliant blue staining based pull-down assay.
Experiment [3] has as its target T1, Exportin-1. Briefly: Inhibition of CRM1 (unknown origin) binding to GST-tagged NES PKI assessed as CRM1/NES band ratio incubated for 1.5 hrs by Coomassie brilliant blue staining based pull-down assay (reference value: 1.00). Set-up: concentration or dose not given beside the values.
Experiment [4] deals with T1, Exportin-1. Briefly: Inhibition of GFP-fused CRM1 cargo nuclear export in human HeLa cells at 200 uM incubated for 4 hrs by confocal microscopic analysis. In kind it is cell-based.
The target in experiment [5] is T1, Exportin-1. Briefly: Inhibition of CRM1 cargo nuclear export in human MCF7 cells at 50 uM incubated for 4 hrs by confocal microscopic analysis. The format is cell-based.

Activity calls are given as the source filed them. The rule behind the calls is not given here.

T1 sequence (O14980 whole entry): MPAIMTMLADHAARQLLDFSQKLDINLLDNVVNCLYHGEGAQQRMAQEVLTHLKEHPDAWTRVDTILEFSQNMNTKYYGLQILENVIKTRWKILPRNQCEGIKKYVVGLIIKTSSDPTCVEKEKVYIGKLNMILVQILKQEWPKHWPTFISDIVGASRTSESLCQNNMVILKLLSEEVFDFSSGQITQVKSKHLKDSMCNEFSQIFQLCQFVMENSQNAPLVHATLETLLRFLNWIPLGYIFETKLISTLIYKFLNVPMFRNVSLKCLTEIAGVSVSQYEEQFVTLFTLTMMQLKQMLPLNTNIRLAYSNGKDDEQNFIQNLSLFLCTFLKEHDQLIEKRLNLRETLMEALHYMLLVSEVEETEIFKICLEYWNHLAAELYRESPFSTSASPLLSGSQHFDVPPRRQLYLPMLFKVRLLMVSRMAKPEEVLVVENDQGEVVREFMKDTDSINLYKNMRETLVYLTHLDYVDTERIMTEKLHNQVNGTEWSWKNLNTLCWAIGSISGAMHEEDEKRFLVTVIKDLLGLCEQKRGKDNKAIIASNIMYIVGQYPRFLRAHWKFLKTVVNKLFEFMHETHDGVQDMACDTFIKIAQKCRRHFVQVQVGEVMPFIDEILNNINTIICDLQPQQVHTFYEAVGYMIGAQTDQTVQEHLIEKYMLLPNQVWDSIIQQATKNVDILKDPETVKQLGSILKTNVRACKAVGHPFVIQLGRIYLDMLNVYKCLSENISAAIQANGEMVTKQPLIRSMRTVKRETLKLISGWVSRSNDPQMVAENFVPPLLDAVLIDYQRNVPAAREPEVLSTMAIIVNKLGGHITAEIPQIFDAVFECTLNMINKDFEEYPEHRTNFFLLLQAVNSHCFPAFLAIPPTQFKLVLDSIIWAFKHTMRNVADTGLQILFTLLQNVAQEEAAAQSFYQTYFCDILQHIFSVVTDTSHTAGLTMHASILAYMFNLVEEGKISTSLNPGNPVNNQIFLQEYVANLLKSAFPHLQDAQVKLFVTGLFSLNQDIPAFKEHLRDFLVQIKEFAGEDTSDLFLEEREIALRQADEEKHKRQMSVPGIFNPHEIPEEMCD

In the case of `Cc1ccc(Cl)cc1N1CCN(c2ccc(C(=O)O)cc2NC(=O)c2ccc(C(F)(F)F)cc2)CC1`, the Ratio at Exportin-1 [1] was found to be 0.35. Also, in the experiment with HeLa, the outcome was Active. For `O=C(O)c1ccc(N2CCN(c3cc(C(F)(F)F)ccc3Cl)CC2)c(NC(=O)c2ccc(Br)cc2)c1`, on Exportin-1 [1], the Ratio was 0.15. Moreover, the result with HeLa was Active.

`COC(=O)c1ccc(N2CCN(c3cc(Cl)ccc3Cl)CC2)c(NC(=O)c2ccc(Cl)cc2)c1`: the inhibition entry on Exportin-1 [2] was “inactive”. Regarding `Cc1ccc(Cl)cc1N1CCN(c2ccc(C(=O)O)cc2NC(=O)c2ccc(Br)cc2)CC1`, the Ratio on Exportin-1 [1] came out at 0.24. Moreover, in the experiment with HeLa, the outcome was Active.

Regarding `COC(=O)c1ccc(N2CCN(c3cc(C(F)(F)F)ccc3Cl)CC2)c(NC(=O)c2ccc(Br)cc2)c1`, the inhibition entry on Exportin-1 [2] was “inactive”. Turning to `COC(=O)c1ccc(N2CCN(c3cccc(C(F)(F)F)c3)CC2)c(NC(=O)c2ccc(Br)cc2)c1`, the inhibition entry on Exportin-1 [2] was “inactive”.

For `Cc1ccc(Cl)cc1N1CCN(c2ccc(C(=O)O)cc2NC(=O)c2ccc(F)cc2)CC1`, on Exportin-1 [3], the Ratio was found to be 0.18. Also, the inhibition entry at Exportin-1 [4] was “inactive”.

As to `COc1ccccc1N1CCN(c2ccc(C(=O)O)cc2NC(=O)c2ccc(Cl)cc2)CC1`, at Exportin-1 [3], the Ratio stood at 0.88. Take `Cc1ccc(C)c(N2CCN(c3ccc(C(=O)O)cc3NC(=O)c3ccccc3C)CC2)c1`: the Ratio on Exportin-1 [3] turned out to be 1.09. Consider `O=C(O)c1ccc(N2CCN(c3cccc(C(F)(F)F)c3)CC2)c(NC(=O)c2ccc(Br)cc2)c1`, for which, on Exportin-1 [1], the Ratio was determined as 0.29. Further, the outcome in the experiment with HeLa was Active. For `O=C(O)c1ccc(N2CCN(c3cccc(C(F)(F)F)c3)CC2)c(NC(=O)c2ccc(F)cc2)c1`, the inhibition entry at Exportin-1 [2] is “Active”. For the same compound, at Exportin-1 [3], the Ratio turned out to be 0.28. The inhibition result at Exportin-1 [4] is “inactive”. `COC(=O)c1ccc(N2CCN(c3cc(Cl)ccc3C)CC2)c(NC(=O)c2ccc(Br)cc2)c1`: the inhibition entry at Exportin-1 [2] was “inactive”. With `COC(=O)c1ccc(N2CCN(c3cc(C(F)(F)F)cc(C(F)(F)F)c3)CC2)c(NC(=O)c2ccc(Br)cc2)c1`, the inhibition result on Exportin-1 [5] and on Exportin-1 [2] was “inactive” throughout.

For `O=C(O)c1ccc(N2CCCN(c3ccc(Cl)nn3)CC2)c(NC(=O)c2ccccc2)c1`, the Ratio at Exportin-1 [3] was 0.8.

For `Cc1ccc(C)c(S(=O)(=O)Nc2cc(C(=O)O)ccc2N2CCN(c3ccc(F)cc3)CC2)c1`, the Ratio at Exportin-1 [3] came to 0.96. As for `O=C(O)c1ccc(N2CCN(C3CCCCC3)CC2)c(NC(=O)c2ccc(F)cc2)c1`, the Ratio on Exportin-1 [3] stood at 0.88. For `O=C(O)c1ccc(N2CCN(c3ccccn3)CC2)c(NC(=O)c2cccc(Cl)c2)c1`, the Ratio on Exportin-1 [3] was 0.72. Turning to `Cc1cccc(S(=O)(=O)Nc2cc(C(=O)O)ccc2N2CCN(c3ccc(F)cc3)CC2)c1`, at Exportin-1 [3], the Ratio is 0.84. Still for that read-out and setting: under `Cc1cccc(C(=O)Nc2cc(C(=O)O)ccc2N2CCC(N3CCCCC3)CC2)c1` stands 0.81; under `O=C(O)c1ccc(N2CCC(N3CCCCC3)CC2)c(NC(=O)c2cccc(Cl)c2)c1`, 0.91. With `COC(=O)c1ccc(N2CCN(c3cc(Cl)ccc3C)CC2)c(NC(=O)c2ccc(C(F)(F)F)cc2)c1`, the inhibition result on Exportin-1 [2] was “inactive”. Regarding `Cc1cccc(S(=O)(=O)Nc2cc(C(=O)O)ccc2N2CCN(c3ccc(Cl)cc3)CC2)c1`, the Ratio on Exportin-1 [3] is 1.07.

For the compound `O=C(O)c1ccc(N2CCN(c3ccc(F)cc3)CC2)c(NC(=O)c2ccc(Br)cc2)c1`, the Ratio on Exportin-1 [3] is 1.24. For the compound `Cc1ccc(C)c(N2CCN(c3ccc(C(=O)O)cc3NC(=O)c3ccc(F)cc3)CC2)c1`, on Exportin-1 [3], the Ratio amounted to 0.82. In the case of `O=C(O)c1ccc(N2CCN(c3ccc(F)cc3)CC2)c(NC(=O)c2ccc(F)cc2)c1`, the Ratio on Exportin-1 [3] stood at 1.15. Same read-out and setting: next, `O=C(O)c1ccc(N2CCC(N3CCCCC3)CC2)c(NC(=O)c2ccc(F)cc2)c1`: 0.83. Turning to `O=C(O)c1ccc(N2CCN(c3cc(Cl)ccc3Cl)CC2)c(NC(=O)c2ccc(Cl)cc2)c1`, at Exportin-1 [1], the Ratio was found to be 0.32. Also, in the experiment with HeLa, the result was Active. As for `O=C(O)c1ccc(N2CCN(Cc3cccc(F)c3)CC2)c(NC(=O)c2ccccc2)c1`, the Ratio on Exportin-1 [3] was determined as 0.72.

In the case of `COC(=O)c1ccc(N2CCN(c3cc(C(F)(F)F)ccc3C(F)(F)F)CC2)c(NC(=O)c2ccc(Cl)cc2)c1`, the inhibition result on Exportin-1 [5] and at Exportin-1 [2] was “inactive” each time.

Take `O=C(O)c1ccc(N2CCN(c3ccccc3C(F)(F)F)CC2)c(NC(=O)c2ccc(Br)cc2)c1`: the Ratio at Exportin-1 [1] turned out to be 0.28. Moreover, in the experiment on HeLa, the result was Active.

For the compound `COC(=O)c1ccc(N2CCN(c3cc(C(F)(F)F)ccc3C)CC2)c(NC(=O)c2ccc(Cl)cc2)c1`, the inhibition result at Exportin-1 [2] was “inactive”. As for `O=C(O)c1ccc(N2CCN(c3ccc(F)cc3)CC2)c(NS(=O)(=O)c2cc(F)ccc2F)c1`, the Ratio on Exportin-1 [3] was found to be 0.83. Regarding `Cc1ccc(C)c(S(=O)(=O)Nc2cc(C(=O)O)ccc2N2CCN(c3ccccc3F)CC2)c1`, the Ratio on Exportin-1 [3] amounted to 0.95. For the compound `COc1ccc(Cl)cc1N1CCN(c2ccc(C(=O)O)cc2NC(=O)c2ccc(Cl)cc2)CC1`, on Exportin-1 [1], the Ratio worked out at 0.85. Also, in the experiment on HeLa, the outcome was Active. For the compound `O=C(O)c1ccc(N2CCN(c3ccccn3)CC2)c(NC(=O)c2ccc(Cl)cc2)c1`, the Ratio at Exportin-1 [3] was 0.85. Regarding `O=C(O)c1ccc(N2CCN(c3cccc(Cl)c3)CC2)c(NS(=O)(=O)c2cccc(F)c2)c1`, the Ratio on Exportin-1 [3] is 0.43. Moreover, the inhibition result on Exportin-1 [4] was “inactive”.

`COC(=O)c1ccc(N2CCN(c3ccccc3C(F)(F)F)CC2)c(NC(=O)c2ccc(Br)cc2)c1`: on Exportin-1 [2], the inhibition result is “inactive”.

Turning to `Cc1cccc(N2CCN(c3ccc(C(=O)O)cc3NC(=O)c3ccc(F)cc3)CC2C)c1` (centres undefined), on Exportin-1 [3], the Ratio was 0.87. `O=C(O)c1ccc(N2CCN(c3ccccc3F)CC2)c(NC(=O)c2ccc(Br)cc2)c1`: the Ratio at Exportin-1 [3] stood at 0.68.

Turning to `COC(=O)c1ccc(N2CCN(c3cc(Cl)ccc3OC)CC2)c(NC(=O)c2ccc(Cl)cc2)c1`, the inhibition result at Exportin-1 [2] is “inactive”. Consider `O=C(O)c1ccc(N2CCN(CC(=O)N3CCCC3)CC2)c(NC(=O)c2ccccc2)c1`, for which, at Exportin-1 [3], the Ratio stood at 1.08. In the case of `Cc1cccc(N2CCN(c3ccc(C(=O)O)cc3NC(=O)c3ccccc3)CC2C)c1` (centres undefined), the Ratio on Exportin-1 [3] amounted to 0.81. Take `Cc1ccc(C(F)(F)F)cc1N1CCN(c2ccc(C(=O)O)cc2NC(=O)c2ccc(Cl)cc2)CC1`: the Ratio at Exportin-1 [1] was found to be 0.2. In addition, in the experiment on HeLa, the outcome was Active. In the case of `COC(=O)c1ccc(N2CCN(c3cc(Cl)ccc3C)CC2)c(NC(=O)c2ccc(Cl)cc2)c1`, the inhibition result on Exportin-1 [2] was “inactive”. As to `Cc1cccc(C(=O)Nc2cc(C(=O)O)ccc2N2CCN(c3ccccc3F)CC2)c1`, the Ratio at Exportin-1 [3] amounted to 1.13. Regarding `O=C(O)c1ccc(N2CCN(c3ccc(F)cc3)CC2)c(NS(=O)(=O)c2cccc(F)c2)c1`, on Exportin-1 [3], the Ratio was found to be 0.85. As for `Cc1cccc(C(=O)Nc2cc(C(=O)O)ccc2N2CCC(CCN3CCCCC3)CC2)c1`, the Ratio at Exportin-1 [3] was determined as 0.81.

Take `COC(=O)c1ccc(N2CCN(c3cc(C(F)(F)F)ccc3C(F)(F)F)CC2)c(NC(=O)c2ccc(Br)cc2)c1`: the inhibition entry on Exportin-1 [5] and on Exportin-1 [2] was “inactive” in each case. Consider `O=C(O)c1ccc(N2CCN(c3ccc(F)cc3)CC2)c(NS(=O)(=O)c2ccc(F)c(F)c2)c1`, for which the Ratio at Exportin-1 [3] amounted to 0.88.

As to `O=C(O)c1ccc(N2CCN(c3cccc(F)c3)CC2)c(NC(=O)c2ccc(Cl)cc2)c1`, the Ratio on Exportin-1 [3] was 0.89. Still for that read-out and setting: under `Cc1cccc(C(=O)Nc2cc(C(=O)O)ccc2N2CCN(c3cccc(C)c3)C(C)C2)c1` (centres undefined) stands 0.76.

Regarding `COC(=O)c1ccc(N2CCN(c3cc(C)ccc3C)CC2)c(NC(=O)c2ccc(Cl)cc2)c1`, on Exportin-1 [2], the inhibition result was “inactive”.

For `Cc1ccc(Cl)cc1N1CCN(c2ccc(C(=O)O)cc2NC(=O)c2ccc(Cl)cc2)CC1`, at Exportin-1 [1], the Ratio came to 0.26. In addition, in the experiment with HeLa, the result was Active.
